The results in this text go back to patent publication US8198279B2, “Pyrido[2,3-b]pyrazin-8-substituted compounds and their use” (Institute of Cancer Research: Royal Cancer Hospital (The), priority 2007, dated 2012).

Each structure is given as a SMILES string.

A word on the IC50: it is the concentration needed to halve the response being measured. Usually GI50 stands for the concentration at which growth is held to half of that of the control. Low readings indicate greater sensitivity of the cells, high ones lower sensitivity of the cells.

In test [1] the test system is pERK. As to the kind of experiment: Cell Based Phospho-ERK Assay. Particulars: 6 h, 6 hours incubation with test compound. On the procedure: Biological Methods—Cell Based Phosho-ERK Assay
Compounds were assessed using a cell-based assay which was performed according to the following protocol.
Plate out 16,000 cells/well in 99 μL medium in a 96-well plate.
• 1. Add 1 μL inhibitor to the cells (total […] solution). • 2. Incubate the cells with test compound for 6 hours at 37° C. • 3. Aspirate off the solution from all of the wells. • 4. Fixate the cells with 100 μL 4% formaldehyde/0.25% Triton X-100 PBS per well. • 5. Incubate the plate for 1 hour at 4° C. • 6. Aspirate off the fixing solution and add 300 μL TBS per well. • 7. Leave the plate overnight at 4° C. Day 2: • 1. Wash the plate 2× with 200 μL PBS per well. • 2. Block with 100 μL 5% dried milk in TBS. • 3. Incubate the plate for 20 minutes at 37° C. • 4. Wash the plate 2× with 0.1% tween/H2O. • 5. Add 50 μL of 3 μg/mL primary antibody pERK (Sigma M8159), diluted in 5% milk powder/TBS, to each well. • 6. Incubate the plate for 2 hours at 37° C. • 7. Wash the plate 3× with 0.1% tween/H2O. • 8. Add 50 μL of 0.45 μg/mL secondary Europium-labelled anti-mouse antibody (Perkin Elmer) to each well. • 9. Incubate the plate for 1 hour at 37° C. • 10. Wash the plate 3× with 0.1% tween/H2O. • 11. Add 100 μL enhancement solution (Perkin Elmer) to each well. • 12. Leave the plate for approximately 10 minutes at room temperature before gently shaking the plate. • 13. Read Europium Time Resolved Fluorescence in Victor2. • 14. Wash the plate 2× with 0.1% tween/H2O. • 15. Measure the protein concentration with BCA (Sigma) by adding 200 μL of solution per well. • 16. Incubate the plate for 30 minutes at 37° C. • 17. Read absorbance levels at 570 nm in a plate reader.
Note that Europium counts are normalised for protein levels by dividing counts by absorbance.
Values for the blank (no cells) are subtracted from all values. The DMSO controls are set as 100% activity and assay points (the response) are calculated as a percentage of the DMSO control. Data are plotted using Graphpad Prism software and a non-linear regression line is calculated using a variable slope sigmoidal dose-response equation (Y=Bottom+(Top−Bottom)/(1+10^((LogEC50−X)*HillSlope)) where X is the logarithm of concentration. Y is the response). The IC50 generated by this procedure is the concentration of the drug that produces a percentage control fluorescence value midway between the saturation, and zero-effect plateaus. Three independent assays are usually performed and the mean IC50 is reported.

Test [2] has as its system WM266.4 melanoma cells. The experiment in a line: SRB Cell Proliferation Assay (SRB GI50). The format is cell-based. The note with it: Homo sapiens, WM 266-4, 144 h, 6 days growth. The method, then: Biological Methods —SRB Cell Proliferation Assay (SRB GI50)
Cultures of WM266.4 melanoma cells are routinely cultured in DMEM/10% foetal bovine serum, at 37° C., in 5% CO2 water saturated atmosphere. Cultures are maintained in exponential growth phase by sub-culturing before having become confluent (3-5 day intervals). Single cell suspensions are prepared by harvesting an 80 cm^2 tissue culture flask with 5 mL commercial trypsin EDTA. After 5 minutes, the detached cells are mixed with 5 mL fully complemented culture medium and centrifugally pelleted (1000 rpm for 7 minutes). After aspirating the supernatant, the cell pellet is re-suspended in 10 mL fresh medium and the cells fully disaggregated by drawing the whole volume up/down 5 times through a 19-gauge needle. The concentration of the cells is determined using a haemocytometer (1/10 dilution). A suitable volume to give at least a 2-fold excess for the number of tests being conducted, typically 100-200 mL, is prepared by diluting the cell suspension to 10,000/mL, and 100 μL/well dispensed into 96 well plates using a programmable 8-channel peristaltic pump, giving 1000 cells/well, leaving column 12 blank. The plates are returned to the incubator for 24 hours to allow the cells to re-attach.
The compounds being tested are prepared at 20 mM in dimethylsulphoxide. Aliquots (200 μL) are diluted into 20 mL culture medium giving 200 μM, and 10 serial dilutions of 3× performed by transferring 5 mL to 10 mL. Aliquots (100 μL) of each dilution are added to the wells, using an 8-channel pipettor, thus performing a final further 2× dilution, and giving doses ranging from 100 μM to 0.005 μM. Column 11 receives plain culture medium only. Each compound is tested in quadruplicate, each replicate being the average of four wells, and two plates per compound.
After a further 6 days growth, the plates are emptied, and the cells are fixed in 10% trichloroacteic acid for 10 minutes on ice. After thorough rinsing in running tap water, the plates are dried, and stained by adding 50 μL of a solution of 0.1% sulphorhodamine-B in 1% acetic acid, for 10 minutes at room temperature. The stain is poured out and the plates thoroughly rinsed under a stream of 1% acetic acid, thus removing unbound stain, and dried. The bound stain is taken into solution by addition of 150 μL Tris buffer pH 8, followed by 10 minutes on a plate-shaker (approximately 500 rpm). The absorbance at 540 nm in each well (being proportional to the number of cells present) is determined using a plate reader.
After averaging the results in rows A-D and E-H, the blank value (row 12) is subtracted, and results expressed as percentage of the untreated value (row 11). […] The GI50 generated by this procedure is the concentration of the drug that produces a percentage control A540 midway between the saturation, and zero-effect plateaus.

The target of test [3] is T1, B-RAF (Homo sapiens, UniProt P15056, V600E).
T1 construct: made in house
T1 sequence (P15056 whole entry V600E): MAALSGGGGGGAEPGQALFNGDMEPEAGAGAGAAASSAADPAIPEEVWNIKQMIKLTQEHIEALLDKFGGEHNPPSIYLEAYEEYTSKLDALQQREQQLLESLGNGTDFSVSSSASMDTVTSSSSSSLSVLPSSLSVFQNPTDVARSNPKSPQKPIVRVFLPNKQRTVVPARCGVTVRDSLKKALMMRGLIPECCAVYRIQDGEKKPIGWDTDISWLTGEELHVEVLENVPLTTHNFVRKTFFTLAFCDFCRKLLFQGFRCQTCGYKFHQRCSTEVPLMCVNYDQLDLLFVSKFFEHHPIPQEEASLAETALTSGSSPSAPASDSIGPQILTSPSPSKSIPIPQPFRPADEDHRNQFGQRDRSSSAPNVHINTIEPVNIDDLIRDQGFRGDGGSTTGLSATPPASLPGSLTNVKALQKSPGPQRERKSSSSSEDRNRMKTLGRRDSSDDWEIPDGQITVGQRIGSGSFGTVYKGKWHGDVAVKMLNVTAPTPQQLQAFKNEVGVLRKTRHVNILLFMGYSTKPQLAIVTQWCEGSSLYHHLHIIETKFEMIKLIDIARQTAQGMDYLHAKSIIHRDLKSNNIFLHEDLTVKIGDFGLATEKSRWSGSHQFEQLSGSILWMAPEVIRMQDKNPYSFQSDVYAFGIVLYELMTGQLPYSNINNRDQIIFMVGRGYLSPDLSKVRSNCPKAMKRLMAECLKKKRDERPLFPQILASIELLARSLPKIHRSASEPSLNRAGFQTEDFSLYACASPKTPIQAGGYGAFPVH
The experiment in a line: DELFIA Kinase Assay. It is filed as biochemical. Particulars: 100 μM ATP, GST-MEK substrate. In short, it runs like this: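 Recombinant B-RAF (V600E) with GST-MEK substrate was preincubated with compound for 10 min at room temperature, then reacted with 100 μM ATP for 45 min on milk-preblocked wells, with antibody detection by DELFIA europium fluorescence. Response is taken as % of DMSO control after empty-vector blank subtraction; IC50 is from a variable-slope sigmoidal fit, mean of usually three independent runs.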

With `CC(C)(C)c1cc(NC(=O)Nc2ccc(Oc3ccnc4ncc(=O)[nH]c34)cc2F)n(-c2ccccc2)n1` [AA-089, 1-(3-tert-butyl-1-phenyl-1H-pyrazol-5-yl)-3-(2-fluoro-4-(2-oxo-1,2-dihydropyrido[3,2-b]pyrazin-8-yloxy)phenyl)urea], the IC50 in test [1] is < 1000 nM; in test [3], 100 to 1000 nM. In test [2], the GI50 was < 1000 nM.

As for `COc1ccc(-n2nc(C(C)(C)C)cc2NC(=O)Nc2ccc(Oc3ccnc4[nH]c(=O)c(C)nc34)cc2SC)cn1` [AA-064, 1-(3-tert-butyl-1-(6-methoxypyridin-3-yl)-1H-pyrazol-5-yl)-3-(4-(2-methyl-3-oxo-3,4-dihydropyrido[2,3-b]pyrazin-8-yloxy)-2-(methylthio)phenyl)urea], the values for the IC50 in test [1] and in test [3] were < 1000 nM and < 100 nM, respectively. Also, the GI50 in test [2] was < 1000 nM.

For the molecule `CC(C)(C)c1cc(NC(=O)Nc2ccc(Oc3ccnc4nc(N5CCOCC5)cnc34)cc2F)n(-c2ccccc2)n1` [AA-071, 1-(3-Tert-butyl-1-phenyl-1H-pyrazol-5-yl)-3-(2-fluoro-4-(3-morpholinopyrido[3,2-b]pyrazin-8-yloxy)phenyl)urea], the IC50 is < 1000 nM in test [1] and 100 to 1000 nM in test [3]. In test [2], the GI50 is < 1000 nM.

`CC(C)(C)c1cc(NC(=O)Nc2ccc(Oc3ccnc4[nH]c(=O)c(N)nc34)c3ccccc23)n(-c2ccccc2)n1` [AA-080, 1-(4-(2-amino-3-oxo-3,4-dihydropyrido[2,3-b]pyrazin-8-yloxy)naphthalen-1-yl)-3-(3-tert-butyl-1-phenyl-1H-pyrazol-5-yl)urea]: the figures for the IC50 in test [1] and in test [3] were < 1000 nM and < 100 nM, respectively. Further, in test [2], the concentration for 50% growth inhibition (GI50) was < 1000 nM.

For the molecule `CC(C)(C)c1cc(NC(=O)Nc2ccc(Oc3ccnc4[nH]c(=O)c(=O)[nH]c34)cc2F)n(-c2ccccc2)n1` [AA-091, 1-(3-Tert-butyl-1-phenyl-1H-pyrazol-5-yl)-3-(4-(2,3-dioxo-1,2,3,4-tetrahydropyrido[3,2-b]pyrazin-8-yloxy)-2-fluorophenyl)urea], the IC50 in test [1] was < 1000 nM; in test [3], 100 to 1000 nM. Besides, the GI50 in test [2] is < 1000 nM.

For `COCn1nc(C(C)(C)C)cc1NC(=O)Nc1ccc(Oc2ccnc3[nH]c(=O)cnc23)cc1F` [AA-098, 1-(3-Tert-butyl-1-(methoxymethyl)-1H-pyrazol-5-yl)-3-(2-fluoro-4-(3-oxo-3,4-dihydropyrido[3,2-b]pyrazin-8-yloxy)phenyl)urea], the IC50 was 1000 to 10000 nM in test [1] and < 100 nM in test [3]. The same molecule registered a GI50 in test [2] of 1000 to 10000 nM.

For `CSc1cc(Oc2ccnc3[nH]c(=O)c(C)nc23)ccc1NC(=O)Nc1cc(C(F)(F)F)ccc1F` [AA-060, 1-(2-fluoro-5-(trifluoromethyl)phenyl)-3-(4-(2-methyl-3-oxo-3,4-dihydropyrido[2,3-b]pyrazin-8-yloxy)-2-(methylthio)phenyl)urea], the IC50 is < 1000 nM in test [1] and < 100 nM in test [3]. In addition, the GI50 in test [2] is < 1000 nM.

`Cc1ccc(-n2nc(C(C)(C)C)cc2NC(=O)Nc2cccc(Oc3ccnc4[nH]c(=O)c(C)nc34)c2)cc1` [AA-078, 1-(3-tert-butyl-1-p-tolyl-1H-pyrazol-5-yl)-3-(3-(2-methyl-3-oxo-3,4-dihydropyrido[2,3-b]pyrazin-8-yloxy)phenyl)urea]: the IC50 in test [1] is < 1000 nM; in test [3] it was 100 to 1000 nM. The GI50 in test [2] was < 1000 nM.

In the case of `O=C(Nc1ccc(Oc2ccnc3[nH]c(=O)cnc23)cc1F)Nc1cc(C(F)(F)F)ccc1-n1cccn1` [AA-094, 1-(2-(1H-pyrazol-1-yl)-5-(trifluoromethyl)phenyl)-3-(2-fluoro-4-(3-oxo-3,4-dihydropyrido[3,2-b]pyrazin-8-yloxy)phenyl)urea], the IC50 in test [1] was < 1000 nM; in test [3], < 100 nM. In test [2], this molecule gave a GI50 of 1000 to 10000 nM.

With `Cc1ccc(-n2nc(C(C)(C)C)cc2NC(=O)Nc2ccc(Oc3ccnc4[nH]c(=O)c(=O)[nH]c34)cc2F)cc1` [AA-074, 1-(3-Tert-butyl-1-p-tolyl-1H-pyrazol-5-yl)-3-(4-(2,3-dioxo-1,2,3,4-tetrahydropyrido[3,2-b]pyrazin-8-yloxy)-2-fluorophenyl)urea], the IC50 in test [1] was < 1000 nM; in test [3] it was < 100 nM. Besides, the GI50 in test [2] is < 1000 nM.

On to `CC(C)(C)c1cc(NC(=O)Nc2cccc(Oc3ccnc4ncc(=O)[nH]c34)c2)n(-c2ccccc2)n1` [AA-076, 1-(3-tert-butyl-1-phenyl-1H-pyrazol-5-yl)-3-(3-(2-oxo-1,2-dihydropyrido[2,3-b]pyrazin-8-yloxy)phenyl)urea], for which the IC50 in test [1] lay within 1000 to 10000 nM; in test [3] it was 100 to 1000 nM. In test [2], the GI50 lay in the range of 1000 to 10000 nM.

On to `Cc1ccc(-n2nc(C(C)(C)C)cc2NC(=O)Nc2ccc(Oc3ccnc4[nH]c(=O)cnc34)c(F)c2)cc1` [AA-088, 1-(3-tert-butyl-1-p-tolyl-1H-pyrazol-5-yl)-3-(3-fluoro-4-(3-oxo-3,4-dihydropyrido[2,3-b]pyrazin-8-yloxy)phenyl)urea], for which the IC50 is < 1000 nM in test [1] and < 100 nM in test [3]. The concentration for 50% growth inhibition (GI50) in test [2] was < 1000 nM.

On to `CSc1cc(Oc2ccnc3ncc(=O)[nH]c23)ccc1NC(=O)Nc1cc(C(C)(C)C)nn1-c1ccccc1` [AA-066, 1-(3-tert-butyl-1-phenyl-1H-pyrazol-5-yl)-3-(2-(methylthio)-4-(2-oxo-1,2-dihydropyrido[2,3-b]pyrazin-8-yloxy)phenyl)urea], for which the IC50 is < 1000 nM in test [1] and 100 to 1000 nM in test [3]. Further, in test [2], the GI50 is < 1000 nM.

For `Nc1nc2nccc(Oc3ccc(NC(=O)Nc4cc(C(F)(F)F)ccc4F)c4ccccc34)c2[nH]c1=O` [AA-079, 1-(4-(3-amino-2-oxo-1,2-dihydropyrido[2,3-b]pyrazin-8-yloxy)naphthalen-1-yl)-3-(2-fluoro-5-(trifluoromethyl)phenyl)urea], the values for the IC50 in test [1] and in test [3] were < 1000 nM and < 100 nM, respectively. Further, the GI50 in test [2] was < 1000 nM.

With `O=C(Nc1cc(C(F)(F)F)ccc1F)Nc1ccc(Oc2ccnc3nc(C(F)(F)F)c(=O)[nH]c23)c2ccccc12` [AA-083, 1-(2-fluoro-5-(trifluoromethyl)phenyl)-3-(4-(2-oxo-3-(trifluoromethyl)-1,2-dihydropyrido[2,3-b]pyrazin-8-yloxy)naphthalen-1-yl)urea], the values for the IC50 in test [1] and in test [3] were 1000 to 10000 nM and 100 to 1000 nM, respectively. The GI50 in test [2] was in the range of 1000 to 10000 nM.
